Reference: ChEMBL document CHEMBL2016443, “From ApoA1 upregulation to BET family bromodomain inhibition: discovery of I-BET151” (Bioorg Med Chem Lett, 2012)
Activity calls are given as the source filed them. No cut-off for these calls is given here.

Key:
[1] = tested on: HepG2; assay: Upregulation of ApoA1 expression in human HepG2 cells assessed as concentration required to increase 70% of luciferase activity after 18 hrs by luciferase reporter gene assay; assay type: functional
[2] = tested on: PBMC; assay: Inhibition of LPS-stimulated TNFalpha production in human PBMC; assay type: functional, cell-based
[3] = tested on: PBMC; assay: Inhibition of LPS-stimulated IL-6 production in human PBMC; assay type: functional, cell-based
[4] = tested on: THP-1; assay: Antiinflammatory activity in human THP1 cells; assay type: functional, cell-based
[5] = target: Cytochrome P450 2C9 (Homo sapiens, UniProt P11712); assay: Inhibition of CYP2C9; assay type: ADME
[6] = target: Cytochrome P450 3A4 (Homo sapiens, UniProt P08684); assay: Inhibition of CYP3A4; assay type: ADME
[7] = tested on: Hepatocyte; assay: Bioactivation in human hepatocytes assessed as compound epoxidation; assay type: cell-based
[8] = tested on: Hepatocyte; assay: Bioactivation in rat hepatocytes assessed as compound epoxidation; assay type: cell-based
[9] = tested on: Salmonella typhimurium; assay: Mutagenic activity in Salmonella typhimurium by Ames assay; assay type: toxicity, organism-based; conditions: salmonella enterica subsp. enterica serovar typhimurium
[10] = species: Rattus norvegicus; assay: Dose normalized AUC (0 to infinity ) in CD rat; assay type: ADME, organism-based; conditions: in vivo
[11] = Clearance in iv dosed CD rat blood after 1 hr; assay type: ADME, organism-based; conditions: whole blood
[12] = Volume of distribution at steady state in CD rat; assay type: ADME, organism-based; conditions: in vivo, read-out: Vdss
[13] = Half life in CD rat; assay type: ADME, organism-based; conditions: CD, in vivo
[14] = Oral bioavailability in CD rat; assay type: ADME, organism-based; conditions: in vivo
[15] = tested on: Hepatocyte; assay: Bioactivation in human hepatocytes assessed as glutathione trapping; assay type: cell-based
[16] = tested on: Hepatocyte; assay: Bioactivation in rat hepatocytes assessed as glutathione trapping; assay type: cell-based
[17] = tested on: Mus musculus; assay: Antiinflammatory activity in LPS-stimulated acute inflammation BALB/c mouse model assessed as inhibition of plasma PAI-1 level at 10 mg/kg, po administered 2 hrs before LPS challenge; assay type: functional
[18] = tested on: Mus musculus; assay: Antiinflammatory activity in LPS-stimulated acute inflammation BALB/c mouse model assessed as inhibition of plasma IL-6 level at 10 mg/kg, po administered 2 hrs before LPS challenge; assay type: functional
[19] = tested on: Mus musculus; assay: Antiinflammatory activity in LPS-stimulated acute inflammation BALB/c mouse model assessed as inhibition of plasma MCP-1 level at 10 mg/kg, po administered 2 hrs before LPS challenge; assay type: functional
[20] = tested on: Mus musculus; assay: Antiinflammatory activity in LPS-stimulated acute inflammation BALB/c mouse model assessed as inhibition of plasma TNF-alpha level at 10 mg/kg, po administered 2 hrs before LPS challenge; assay type: functional

Chain of Cytochrome P450 2C9 (P11712 whole entry): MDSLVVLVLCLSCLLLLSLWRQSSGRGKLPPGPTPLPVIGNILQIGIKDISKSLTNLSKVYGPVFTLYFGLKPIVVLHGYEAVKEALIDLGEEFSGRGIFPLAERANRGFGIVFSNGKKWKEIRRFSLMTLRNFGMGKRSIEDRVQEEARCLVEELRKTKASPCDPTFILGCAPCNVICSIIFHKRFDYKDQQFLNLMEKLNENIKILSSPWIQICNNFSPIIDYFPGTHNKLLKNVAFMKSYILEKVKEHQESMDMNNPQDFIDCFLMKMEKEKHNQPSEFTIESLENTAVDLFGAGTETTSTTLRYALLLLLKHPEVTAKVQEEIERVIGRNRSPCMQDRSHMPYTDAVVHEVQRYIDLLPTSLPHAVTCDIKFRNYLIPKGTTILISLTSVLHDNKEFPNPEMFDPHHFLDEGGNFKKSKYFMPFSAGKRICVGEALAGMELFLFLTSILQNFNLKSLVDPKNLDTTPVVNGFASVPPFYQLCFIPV
Chain of Cytochrome P450 3A4 (P08684 whole entry): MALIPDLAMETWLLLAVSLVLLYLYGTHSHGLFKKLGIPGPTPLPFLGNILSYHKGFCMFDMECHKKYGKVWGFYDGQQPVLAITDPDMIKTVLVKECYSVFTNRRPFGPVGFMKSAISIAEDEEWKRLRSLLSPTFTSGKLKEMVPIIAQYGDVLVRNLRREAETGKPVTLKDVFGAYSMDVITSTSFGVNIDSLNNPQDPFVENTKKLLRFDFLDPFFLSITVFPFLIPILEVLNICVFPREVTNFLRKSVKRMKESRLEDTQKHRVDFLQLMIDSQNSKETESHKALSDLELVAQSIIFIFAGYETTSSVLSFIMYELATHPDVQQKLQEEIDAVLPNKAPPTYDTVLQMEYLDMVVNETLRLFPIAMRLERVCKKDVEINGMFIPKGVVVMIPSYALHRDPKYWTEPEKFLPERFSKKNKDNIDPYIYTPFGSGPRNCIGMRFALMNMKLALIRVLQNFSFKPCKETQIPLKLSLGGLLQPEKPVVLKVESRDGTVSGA

Row | Compound | EC170 [1] [µM] | Activity [2] | Activity [3] | Activity [4] | IC50 [5] [nM] | IC50 [6] [nM] | further results
1 | Cc1noc(C)c1-c1ccc2c(Nc3ccccc3)c(C(=O)NCc3ccccc3)cnc2c1 | 1.44 | Active | Active | Active | – | – | –
2 | Cc1noc(C)c1-c1ccc2c(Nc3ccccc3C(C)(C)C)c(C(=O)O)cnc2c1 | 0.32 | Active | Active | Active | 10000 | 13000 | –
3 | Cc1noc(C)c1-c1ccc2c(Nc3ccccc3)c(C(=O)O)cnc2c1 | 1.74 | Active | Active | Active | > 33000 | > 33000 | –
4 | Cc1noc(C)c1-c1ccc2c(Nc3ccccc3)c(C(N)=O)cnc2c1 | 0.5 | Active | Active | Active | 2100 | 17000 | –
5 | COc1cc2c(cc1-c1c(C)noc1C)ncc1[nH]c(=O)n([C@@H](C)c3ccccc3)c12 | 0.47 | Active | Active | Active | – | – | –
6 | Cc1noc(C)c1-c1ccc2c(Nc3ccccc3C(C)(C)C)c(C(=O)O)cnc2c1C | 1.05 | Active | Active | Active | – | – | –
7 | COc1cc2c(cc1-c1c(C)noc1C)ncc1[nH]c(=O)n(-c3ccccc3F)c12 | 0.76 | Active | Active | Active | – | – | –
8 | Cc1noc(C)c1-c1ccc2c(Nc3ccccc3)ccnc2c1 | 4.27 | Active | Active | Active | – | – | –
9 | COc1cc2c(cc1-c1c(C)noc1C)ncc1[nH]c(=O)n([C@H](C)c3ccccc3)c12 | 0.01 | Active | Active | Active | 1000 | 1500 | –
10 | COc1cc2c(cc1-c1c(C)noc1C)ncc1[nH]c(=O)n(-c3ccccc3OC(F)(F)F)c12 | 0.09 | Active | Active | Active | 2300 | – | –
11 | COc1cc2c(NCc3ccccc3)c(C(N)=O)cnc2cc1-c1c(C)noc1C | 1.07 | Active | Active | Active | – | – | –
12 | COc1cc2c(Nc3ccccc3F)c(C(N)=O)cnc2cc1-c1c(C)noc1C | 0.3 | Active | Active | Active | 600 | 4700 | –
13 | Cc1noc(C)c1-c1ccc2c(Nc3ccccc3F)c(C(N)=O)cnc2c1 | 0.5 | Active | Active | Active | – | – | –
14 | COc1cc2c(cc1-c1c(C)noc1C)ncc1[nH]c(=O)n(C(C)c3ccccc3)c12 (racemic) | 0.03 | Active | Active | Active | 1300 | 2000 | –
15 | Cc1noc(C)c1-c1ccc2c(Nc3ccccc3)c(C(=O)N(C)C)cnc2c1 | 7.08 | Active | Active | Active | – | – | –
16 | COc1ccccc1Nc1c(C(N)=O)cnc2cc(-c3c(C)noc3C)ccc12 | 0.39 | Active | Active | Active | – | – | –
17 | COc1cc2c(cc1-c1c(C)noc1C)ncc1[nH]c(=O)n(Cc3ccccc3)c12 | 0.06 | Active | Active | Active | 1200 | – | –
18 | COc1cc2c(Nc3ccccc3C(C)(C)C)c(C(=O)O)cnc2cc1-c1c(C)noc1C | 0.28 | Active | Active | Active | – | – | –
19 | Cc1noc(C)c1-c1ccc2c(Nc3ccccc3C(C)(C)C)c(C(N)=O)cnc2c1 | 0.63 | Active | Active | Active | 700 | 2000 | –

Row | Compound | EC170 [1] [µM] | Activity [2] | Activity [3] | Activity [4] | IC50 [5] [nM] | IC50 [6] [nM] | further results
20 | COc1cc2c(cc1-c1c(C)noc1C)ncc1[nH]c(=O)n(Cc3ccccn3)c12 | – | Active | Active | Active | – | 12900 | –
21 | COc1cc2c(cc1-c1c(C)noc1C)ncc1[nH]c(=O)n(-c3ccccc3C(C)(C)C)c12 | 0.05 | Active | Active | Active | 900 | 1700 | –
22 | COc1cc2c(NC3CCCCC3)c(C(N)=O)cnc2cc1-c1c(C)noc1C | 0.45 | Active | Active | Active | – | – | –
23 | COc1cc2c(Nc3ccccc3N3CCOCC3)c(C(N)=O)cnc2cc1-c1c(C)noc1C | 0.09 | Active | Active | Active | 5100 | 1500 | –
24 | Cc1cccc(Nc2c(C(N)=O)cnc3cc(-c4c(C)noc4C)ccc23)c1 | 0.6 | Active | Active | Active | – | – | –
25 | COc1cc2c(Nc3ccccc3C(=O)c3ccccn3)c(C(N)=O)cnc2cc1-c1c(C)noc1C | 0.2 | Active | Active | Active | 9900 | 3100 | –
26 | COc1cc2c(Nc3ccccc3CCN3CCOCC3)c(C(N)=O)cnc2cc1-c1c(C)noc1C | 0.09 | Active | Active | Active | 2200 | 1900 | –
27 | Cc1noc(C)c1-c1ccc2c(Nc3ccccc3Cl)c(C(N)=O)cnc2c1 | 1 | Active | Active | Active | – | – | –
28 | COc1cc2c(Nc3ccccc3C(=O)N3CCCCC3)c(C(N)=O)cnc2cc1-c1c(C)noc1C | 0.13 | Active | Active | Active | 8500 | 1800 | –
29 | CCNC(=O)C[C@@H]1N=C(c2ccc(Cl)cc2)c2cc(OC)ccc2-n2c(C)nnc21 [MOLIBRESIB] | 0.2 | – | – | – | – | – | –
30 | CC[C@H](c1ccccc1)n1c(=O)[nH]c2cnc3cc(-c4c(C)noc4C)c(OC)cc3c21 | 0.03 | Active | Active | Active | 2400 | 2400 | –
31 | COc1cc2c(Nc3cccc4cccnc34)c(C(N)=O)cnc2cc1-c1c(C)noc1C | 0.22 | Active | Active | Active | 2800 | 3900 | Drug metabolism [7]: Active; Drug metabolism [8]: Active; Activity [9]: Toxic; AUC/dose [10]: 12 kg·min/L; clearance [11]: 50 mL/min/kg; Vd [12]: 4 L/kg; half-life [13]: 1.1 h; bioavailability [14]: 59%; Drug metabolism [15]: Active; Drug metabolism [16]: Active
32 | COc1cc2c(Nc3ccccc3C(C)(C)C)c(C(N)=O)cnc2cc1-c1c(C)noc1C | 0.13 | Active | Active | Active | 1200 | 1900 | –
33 | Cc1ccccc1Nc1c(C(N)=O)cnc2cc(-c3c(C)noc3C)ccc12 | 0.44 | Active | Active | Active | – | – | –
34 | Cc1noc(C)c1-c1ccc2c(Nc3ccccc3C#N)c(C(N)=O)cnc2c1 | 1.02 | Active | Active | Active | – | – | –
35 | Cc1cc2c(Nc3ccccc3C(C)(C)C)c(C(=O)O)cnc2cc1-c1c(C)noc1C | 1.99 | Active | Active | Active | – | – | –
36 | C[C@]12C=CC(=O)C=C1CC[C@@H]1[C@@H]2[C@@H](O)C[C@@]2(C)[C@H]1CC[C@]2(O)C(=O)CO [PREDNISOLONE] | – | – | – | – | – | – | inhibition in vivo at 10 mg/kg [17]: 43%; inhibition in vivo at 10 mg/kg [18]: 59%; inhibition in vivo at 10 mg/kg [19]: 49%; inhibition in vivo at 10 mg/kg [20]: 94%
37 | Cc1ccc(Nc2c(C(N)=O)cnc3cc(-c4c(C)noc4C)ccc23)cc1 | 1.05 | Active | Active | Active | – | – | –
38 | COc1cc2c(NCc3ccccn3)c(C(N)=O)cnc2cc1-c1c(C)noc1C | 2.57 | Active | Active | Active | – | – | –
